Laboratory results published in PMC5614581, “Investigating cyclic nucleotide and cyclic dinucleotide binding to HCN channels by surface plasmon resonance” (PLoS ONE, 2017).
Substitutions are numbered along the chain they refer to. Entries after “also recorded” stand apart in the source; their conditions may differ. Where two headings read alike, the source gives them in different places.

Columns and labels:
[1] = target: isolated C-linker/CNBDs of HCN4 channels; details: read-out: binding affinity (SPR, ligand coupled to CM5 sensor); cited from earlier work
[2] = target: isolated C-linker/CNBDs of HCN2 channels; details: read-out: binding affinity (SPR, ligand coupled to CM5 chip); cited from earlier work
[3] = target: C-linker/CNBDs of HCN4 channels; details: read-out: binding affinity (FA), cited from earlier work
[4] = target: isolated C-linker/CNBDs of HCN2 channels; details: read-out: binding affinity (FA); cited from earlier work
[5] = system: full-length hHCN4 channels; details: cited from earlier work; for effect on cyclic nucleotide modulation of the channel: in the presence of cyclic nucleotides
[6] = target: T1, C-linker/CNBD of mouse HCN2 (mHCN2, residues 443–645) (Mus musculus, UniProt O88703); assay: SPR, immobilized mHCN2 C-linker/CNBD on NTA chip; details: for Kd: SPR
T1 sequence (O88703 443-645): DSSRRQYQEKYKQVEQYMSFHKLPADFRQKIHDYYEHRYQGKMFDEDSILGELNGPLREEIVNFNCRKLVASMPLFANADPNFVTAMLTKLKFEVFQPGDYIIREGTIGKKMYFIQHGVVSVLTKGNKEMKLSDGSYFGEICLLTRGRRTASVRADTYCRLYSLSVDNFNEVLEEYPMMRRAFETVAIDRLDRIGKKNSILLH
Experimental: (§1) SPR experiments were performed at 25 °C on a Biacore 4000 Instrument (GE Healthcare). C-linker/CNBDs of wild-type and L586W mutant mHCN2, and hHCN4 channels were immobilized on a NTA chip (GE Healthcare), as previously described [31, 32]. Immobilizations of the proteins were performed in HBS-P buffer (150 mM NaCl, 10 mM HEPES, 0.05% (v/v) surfactant P20, pH 7.4). First the NTA sensor surface was activated with a 1 min injection of 0.5 M NiCl2. The coupling of the Ni^2+-NTA chip surface groups with the 6-His-tagged proteins was then achieved by 2.5 min injections of the proteins at 200 nM concentrations to the chip surface. After the initial capturing, the proteins were covalently cross-linked via 20 s injections of NHS-EDC carboxyl-reactive cross-linkers to prevent protein loss from the chip surface with successive analyte and buffer injections. This was followed by 20 s injection of 1 M ethanolamine to block the remaining reactive sites. The proteins were captured at ~1000–3000 resonance units (RU; 1 RU = 1 pg of protein per mm^2). […] This spot was used as a reference surface to account for a non-specific binding to the chip surface. The binding to the reference surface was subtracted from the binding to the surfaces with immobilized proteins. In addition, the binding corresponding to blank injections (buffer only) was subtracted from the reference subtracted SPR data.
(§2) The binding experiments were performed in the running buffer (150 mM KCl, 10% Glycerol, 1 mM TCEP, 30 mM HEPES, pH 7.5). Analytes over the range of concentrations were injected in triplicates over the chip surface for 60 s at a flow rate of 30 μl /min, followed by buffer only injections. The regeneration of the surface between the analyte injections was not necessary, as the baseline returned to the pre-injection levels. In some experiments we observed a drift in the baseline. […] However, there was minimal residual binding between analyte injections, as indicated by essentially the same binding response for triplicate repeats of analyte injections at the same concentrations.
(§3) Each experiment was repeated on at least three different NTA chips.
(§4) Therefore, concentrations higher than 300 μM were excluded from the analysis. The data analysis and fitting of the plots was performed in Origin (Microcal Software, Inc). Error bars indicate the SEM. […] For each NTA chip an analyte was injected three times. Therefore, each experiment was repeated at least 3xn times. Statistical analysis was performed by using one-way ANOVA. P < 0.05 was considered statistically significant.

[7] = target: T2, C-linker/CNBD of human HCN4 (hHCN4, residues 521–723) (Homo sapiens, UniProt Q9Y3Q4); assay: SPR, immobilized hHCN4 C-linker/CNBD on NTA chip; details: for SPR binding response: analyte alone (no added cAMP), 300 μM or range up to 300 μM; for SPR binding response in the presence of cAMP: in the presence of 100 μM cAMP, analyte 300 μM or range up to 300 μM
T2 sequence (Q9Y3Q4 521-723): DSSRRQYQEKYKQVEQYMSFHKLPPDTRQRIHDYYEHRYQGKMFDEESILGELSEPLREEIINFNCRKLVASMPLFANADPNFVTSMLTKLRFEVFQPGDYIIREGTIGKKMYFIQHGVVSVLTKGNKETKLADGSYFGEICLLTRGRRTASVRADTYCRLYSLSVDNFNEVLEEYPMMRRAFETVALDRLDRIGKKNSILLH
Experimental: as §1, §2, §3, §4

[8] = target: T3, hHCN4 C-linker/CNBD (monomeric) (Homo sapiens, UniProt Q9Y3Q4); assay: ITC, 6 μM (monomeric) 6-His tagged hHCN4 C-linker/CNBD; assay type: binding; details: 6 μM C-linker/CNBD
T3 construct: human HCN4 (hHCN4, residues 521–723); made in house; host or cells: E. coli BL21 (DE3)
T3 sequence (Q9Y3Q4 521-723): T2 sequence (Q9Y3Q4 521-723)
Experimental: (§5) For ITC experiments at low concentrations of the hHCN4 C-linker/CNBD the protein was concentrated to 6 μM and dialyzed in 150 mM KCl, 1 mM TCEP, 30 mM HEPES, pH 7.5 overnight at 4°C using a Slide-A-Lyzer dialysis cassette (ThermoFisher Scientific). For ITC experiments at high concentrations of the hHCN4 C-linker/CNBD the protein was concentrated to 80 μM and dialyzed in 100 mM KCl, 1 mM TCEP, 20 mM HEPES, pH 7.0 overnight at 4°C using a Slide-A-Lyzer cassette. The protein solutions were degassed prior to each experiment. ITC titrations were performed at 25°C using the ITC200 calorimeter (Malvern Instruments Inc. Westborough, MA). […] Data analysis was performed with NITPIC and SEDFAT [34, 35] using a single-site binding model for 6 μM C-linker/CNBDs and a two independent binding site model for 80 μM C-linker/CNBDs, as used by Chow et al. [36].

[9] = target: T4, hHCN4 C-linker/CNBD (tetrameric) (Homo sapiens, UniProt Q9Y3Q4); assay: ITC, 80 μM (tetrameric) hHCN4 C-linker/CNBD after MBP tag cleavage; assay type: binding; details: 80 μM C-linker/CNBD
T4 construct: C-linker/CNBD of hHCN4 (residues 521–723); made in house; host or cells: E. coli BL21 (DE3)
T4 sequence (Q9Y3Q4 521-723): T2 sequence (Q9Y3Q4 521-723)
Experimental: as §5

[10] = target: mHCN2-L586W C-linker/CNBDs; details: read-out: binding affinity (tryptophan fluorescence); cited from earlier work
[11] = system: full-length HCN2 channels; details: read-out: affinity for full-length HCN2 channels, electrophysiology; cited from earlier work
[12] = target: T5, mHCN2-L586W C-linker/CNBD (Mus musculus, UniProt O88703, L586W); assay: SPR, immobilized mHCN2-L586W C-linker/CNBD on NTA chip; assay type: binding
T5 construct: mouse HCN2 (mHCN2, residues 443–645); made in house; host or cells: E. coli BL21 (DE3)
T5 sequence (O88703 443-645 L586W): T1 sequence (O88703 443-645) with L144W
Experimental: Error bars indicate the SEM. […] Statistical analysis was performed by using one-way ANOVA. P < 0.05 was considered statistically significant.

[13] = target: isolated C-linker/CNBDs of HCN2 channels; details: cGMP; read-out: binding affinity (ITC); cited from earlier work
[14] = analyte alone (no added cAMP), 300 μM
[15] = in the presence of 100 μM cAMP, analyte 300 μM

For `NCCCCCCNc1nc2c(N)ncnc2n1[C@@H]1O[C@@H]2COP(=O)(O)O[C@H]2[C@H]1O` [8-AHA-cAMP], the Kd [1] is given as 11 µM and the Kd [2] is given as 10 µM.

For `Nc1ncnc2c1nc(SCCNC(=S)Nc1ccc(-c3c4ccc(=O)cc-4oc4cc(O)ccc34)c(C(=O)O)c1)n2C1OC2COP(=O)(O)OC2C1O` (stereo not drawn) [8-Fluo-cAMP], the Kd ([3]; 8-Fluo-cAMP) is listed as 0.18 to 0.28 µM and the Kd [4] is listed as 0.3 to 0.7 µM.

For `Nc1nc2c(nc(SCCNC(=S)Nc3ccc4c(c3)C(=O)OC43c4ccc(O)cc4Oc4cc(O)ccc43)n2[C@@H]2O[C@@H]3COP(=O)(O)O[C@H]3[C@H]2O)c(=O)[nH]1` [8-Fluo-cGMP], the Kd ([3]; 8-Fluo-cGMP) is given as 0.7 µM.

In the case of `Nc1ncnc2c1ncn2[C@@H]1O[C@@H]2COP(=O)(O)O[C@H]3[C@@H](O)[C@H](n4cnc5c(N)ncnc54)O[C@@H]3COP(=O)(O)O[C@H]2[C@H]1O` [c-di-AMP], the “effect on cyclic nucleotide modulation of the channel” value (“effect … of the channel” below) [5] is listed as “antagonized the effect of cyclic nucleotides”, the SPR binding response [6, 14] is listed as “No increase in the binding response” and the SPR binding response ([6]; analyte alone (no added cAMP), 300 μM, listed as c-diAMP) is listed as “did not detect any binding”. For the same molecule, the “SPR binding response in the presence of cAMP” value (shortened to “SPR binding response … of cAMP”) [6, 15] was “No increase in the binding response”, the “SPR binding response … of cAMP” value ([6]; in the presence of 100 μM cAMP, analyte 300 μM, listed as c-diAMP) was “did not detect any binding” and the SPR binding response [7] was “No increase in the binding response; also recorded: did not show any cyclic dinucleotide binding”. The SPR binding response ([7]; listed as c-diAMP) was “did not detect any binding”, the “SPR binding response … of cAMP” value [7] was “No increase in the binding response; also recorded: did not show any cyclic dinucleotide binding” and the “SPR binding response … of cAMP” value ([7]; listed as c-diAMP) was “did not detect any binding”.

For `Nc1nc2c(ncn2[C@@H]2O[C@@H]3COP(=O)(O)O[C@H]4[C@@H](O)[C@H](n5cnc6c(=O)[nH]c(N)nc65)O[C@@H]4COP(=O)(O)O[C@H]3[C@H]2O)c(=O)[nH]1` [c-di-GMP], the “effect on the cAMP-induced V1/2 shift” value ([5]; 100 μM c-di-GMP, 15 μM cAMP) is listed as “completely abolishing the effect of 15 μM cAMP”, the IC50 ([5]; in the presence of 15 μM cAMP, read-out: apparent affinity for decreasing the cAMP-induced positive shift in V1/2) is listed as 1.8 µM and the “effect … of the channel” value [5] is listed as “antagonized the effect of cyclic nucleotides”. For the same molecule, the SPR binding response [6, 14] was “did not detect any binding”, the “SPR binding response … of cAMP” value [6, 15] was “did not detect any binding” and the SPR binding response [7] was “No increase in the binding response; also recorded: did not show any cyclic dinucleotide binding”. For the same molecule, the SPR binding response ([7]; listed as c-diGMP) was “did not detect any binding”, the “SPR binding response … of cAMP” value [7] was “No increase in the binding response; also recorded: did not show any cyclic dinucleotide binding” and the “SPR binding response … of cAMP” value ([7]; listed as c-diGMP) was “did not detect any binding”. For the same molecule, the “binding (ITC)” value ([8]; absence of cAMP, titrated with 300 μM ligand) was “no binding”, the “binding (ITC) in the presence of cAMP” value ([8]; presence of 100 μM cAMP in ligand and protein solutions) was “no binding” and the “binding (ITC)” value ([9]; absence of cAMP) was “no binding”. For the same molecule, the “binding (ITC) in the presence of cAMP” value ([9]; presence of 1 mM cAMP) was “no binding”.

In the case of `Nc1nc2c(ncn2[C@@H]2O[C@@H]3COP(=O)(O)O[C@H]4[C@@H](O)[C@H](n5cnc6c(N)ncnc65)O[C@@H]4COP(=O)(O)O[C@@H]2[C@@H]3O)c(=O)[nH]1` [cGAMP], the “effect … of the channel” value [5] is given as “antagonized the effect of cyclic nucleotides”, the SPR binding response [6] is given as “did not detect any binding” and the “SPR binding response … of cAMP” value [6] is given as “did not detect any binding”.

In the case of `Nc1nc2c(ncn2[C@@H]2O[C@@H]3COP(=O)(O)O[C@H]3[C@H]2O)c(=O)[nH]1` [cGMP], the Kd [10] is listed as 62 ± 23 µM, the EC50 ([5]; cGMP, read-out: affinity for full-length hHCN4 channels, electrophysiology) is listed as 13.2 µM and the Kd ([6]; read-out: Kd (averaged binding affinity), averaged over different NTA chips, 25 °C, Hill fit) is listed as 13.4 ± 2 µM. The Kd ([6]; read-out: binding affinity (fit of representative dose response plot), single surface, Fig 1E) was 12.3 ± 1.1 µM, the “affinity for hHCN4 relative to mHCN2 domains” value ([7]; SPR, P < 0.05 by ANOVA) was “about two-fold higher” and the SPR binding response [7] was “robust response”. For the same molecule, the Kd ([7]; read-out: Kd (averaged binding affinity), SPR, averaged over different NTA chips) was 5.5 ± 0.9 µM, the Kd ([7]; read-out: binding affinity (fit of representative dose response plot), SPR, single surface, Fig 3C) was 5.6 ± 0.2 µM and the EC50 [11] was ~6 µM. For the same molecule, the Kd ([12]; averaged over different NTA chips, for cGMP only a limit could be estimated, read-out: Kd (averaged binding affinity)) was > 73.9 µM, the Kd ([12]; single surface, Fig 2D, read-out: binding affinity (fit of representative dose response plot)) was ≥ 70.1 µM and the Kd [13] was 8.5 µM.
